From ChEMBL document CHEMBL1136903, “Spiroimidazolidinone NPC1L1 inhibitors. 1: Discovery by 3D-similarity-based virtual screening” (Bioorg Med Chem Lett, 2009)
pIC50: −log10 of the molar value.

Molecular target: T1, NPC1-like intracellular cholesterol transporter 1 (Homo sapiens, UniProt Q9UHC9)
T1 sequence (Q9UHC9 whole entry): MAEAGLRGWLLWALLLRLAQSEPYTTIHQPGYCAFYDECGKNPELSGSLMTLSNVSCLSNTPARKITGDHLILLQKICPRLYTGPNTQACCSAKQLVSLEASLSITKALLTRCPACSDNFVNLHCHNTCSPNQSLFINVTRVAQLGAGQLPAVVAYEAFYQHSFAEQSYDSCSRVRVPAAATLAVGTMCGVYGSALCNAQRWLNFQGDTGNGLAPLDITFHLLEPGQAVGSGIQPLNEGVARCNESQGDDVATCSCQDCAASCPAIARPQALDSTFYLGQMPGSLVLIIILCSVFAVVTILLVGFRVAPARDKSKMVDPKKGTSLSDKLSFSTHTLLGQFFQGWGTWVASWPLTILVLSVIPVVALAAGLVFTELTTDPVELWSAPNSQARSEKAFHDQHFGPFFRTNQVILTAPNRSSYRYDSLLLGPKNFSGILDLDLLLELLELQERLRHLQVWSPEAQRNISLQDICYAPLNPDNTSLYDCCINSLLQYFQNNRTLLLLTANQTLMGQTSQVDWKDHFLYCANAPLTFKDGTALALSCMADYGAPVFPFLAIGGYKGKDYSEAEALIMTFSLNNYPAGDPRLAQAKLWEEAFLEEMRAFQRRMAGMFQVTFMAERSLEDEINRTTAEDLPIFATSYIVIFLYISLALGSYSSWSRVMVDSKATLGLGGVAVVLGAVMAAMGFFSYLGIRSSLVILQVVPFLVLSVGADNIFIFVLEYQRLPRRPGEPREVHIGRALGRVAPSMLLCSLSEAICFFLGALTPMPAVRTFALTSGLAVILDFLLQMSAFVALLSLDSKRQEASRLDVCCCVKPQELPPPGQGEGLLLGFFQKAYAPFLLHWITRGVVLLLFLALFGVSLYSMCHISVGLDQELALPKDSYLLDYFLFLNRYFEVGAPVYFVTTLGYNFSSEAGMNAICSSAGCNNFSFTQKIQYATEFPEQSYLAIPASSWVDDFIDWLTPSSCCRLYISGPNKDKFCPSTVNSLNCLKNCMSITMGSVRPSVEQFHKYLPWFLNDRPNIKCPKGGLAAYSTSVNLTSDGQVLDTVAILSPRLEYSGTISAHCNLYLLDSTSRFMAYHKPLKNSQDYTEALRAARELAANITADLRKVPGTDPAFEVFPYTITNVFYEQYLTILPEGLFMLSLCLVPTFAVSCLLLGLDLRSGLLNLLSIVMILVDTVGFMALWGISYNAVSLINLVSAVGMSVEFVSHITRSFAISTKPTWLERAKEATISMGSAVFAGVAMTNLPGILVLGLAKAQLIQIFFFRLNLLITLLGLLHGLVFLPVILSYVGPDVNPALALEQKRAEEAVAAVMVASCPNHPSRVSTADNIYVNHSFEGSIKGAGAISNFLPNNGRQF
Assay: Displacement of [35S](2S,3S,4S,5R,6S)-6-(4-((2S,3R)-3-((S)-3-(4-fluorophenyl)-3-hydroxypropyl)-1-(4-(3-(methylsulfonamido)prop-1-ynyl)phenyl)-4-oxoazetidin-2-yl)phenoxy)-3,4,5-trihydroxytetrahydro-2H-pyran-2-carboxylic acid from human recombinant NPC1L1 expressed in HEK293 cells
Assay type: cell-based

pIC50	SMILES
5.36	CC(C)CNC(=O)CN1CN(c2ccccc2)C2(CCN(C(=O)c3ccc(C(C)(C)C)cc3)CC2)C1=O
5.13	Cn1c(N(Cc2ccc(OCCCC(=O)O)cc2)[C@H]2CC[C@H](C(C)(C)C)CC2)nc2cc(OC3CCCC3)ccc21
5.34	CC1(C(=O)O)COc2ccc(CCN(CCCCC3CCCCC3)C(=O)Nc3ccc(SC(F)(F)F)cc3)cc2O1 (stereo unspecified)

The remaining lines, values behind:

SMILES	pIC50
Cc1ccc(CCC2CCC(CNC(=O)c3cn[nH]c3)CN2C(=O)OCc2ccccc2)cc1 (stereo unspecified)	4.09
CC(C)(C)c1ccc(C(=O)NS(=O)(=O)N2CC3(CCN(C(=O)OCCc4ccccc4)CC3)c3ccccc32)cc1	4.10
O=C(c1cccc2ccccc12)N1CC(C(=O)N2CCC3(C=Cc4ccccc43)CC2)CC(c2ccccc2)C1 (stereo unspecified)	6.41
